Test results as given in ChEMBL document CHEMBL2440076, “New triarylpyrazoles as broad-spectrum anticancer agents: design, synthesis, and biological evaluation” (Eur J Med Chem, 2013).

Assays:
Type in all cases: functional
[1] = test system: TK-10; experiment: Growth inhibition of human TK10 cells assessed as cell growth at 5X10'-8 M after 48 hrs by sulforhodamine B assay; details: TK-10, 48 h, read-out: Activity
[2] = test system: MDA-MB-468; experiment: Growth inhibition of human MDA-MB-468 cells assessed as cell growth at 5X10'-5 M after 48 hrs by sulforhodamine B assay; details: MDA-MB-468, 48 h, read-out: Activity
[3] = test system: SK-OV-3; experiment: Growth inhibition of human SKOV3 cells assessed as cell growth at 5X10'-5 M after 48 hrs by sulforhodamine B assay; details: SK-OV-3, 48 h, read-out: Activity
[4] = test system: OVCAR-8; experiment: Growth inhibition of human OVCAR8 cells assessed as cell growth at 5X10'-5 M after 48 hrs by sulforhodamine B assay; details: OVCAR-8, 48 h, read-out: Activity
[5] = test system: BT-549; experiment: Growth inhibition of human BT549 cells assessed as cell growth at 5X10'-6 M after 48 hrs by sulforhodamine B assay; details: BT-549, 48 h, read-out: Activity
[6] = test system: HOP-92; experiment: Growth inhibition of human HOP92 cells assessed as cell growth at 5X10'-9 M after 48 hrs by sulforhodamine B assay; details: HOP-92, 48 h, read-out: Activity
[7] = test system: SNB-75; experiment: Growth inhibition of human SNB75 cells assessed as cell growth at 5X10'-5 M after 48 hrs by sulforhodamine B assay; details: SNB-75, 48 h, read-out: Activity
[8] = test system: 786-0; experiment: Growth inhibition of human 786-0 cells assessed as cell growth at 5X10'-5 M after 48 hrs by sulforhodamine B assay; details: 786-0, 48 h, read-out: Activity
[9] = test system: COLO 205; experiment: Growth inhibition of human COLO205 cells assessed as cell growth at 5X10'-8 M after 48 hrs by sulforhodamine B assay; details: COLO 205, 48 h, read-out: Activity
[10] = Growth inhibition of human HCC2998 cells assessed as cell growth at 5X10'-8 M after 48 hrs by sulforhodamine B assay; details: HCC 2998, 48 h, read-out: Activity
[11] = test system: NCI-H522; experiment: Growth inhibition of human NCI-H522 cells assessed as cell growth at 5X10'-7 M after 48 hrs by sulforhodamine B assay; details: NCI-H522, 48 h, read-out: Activity
[12] = test system: OVCAR-5; experiment: Growth inhibition of human OVCAR5 cells assessed as cell growth at 5X10'-5 M after 48 hrs by sulforhodamine B assay; details: OVCAR-5, 48 h, read-out: Activity
[13] = Growth inhibition of human Hs 578T cells assessed as cell growth at 5X10'-5 M after 48 hrs by sulforhodamine B assay; details: read-out: Activity
[14] = test system: NCI-H23; experiment: Growth inhibition of human NCI-H23 cells assessed as cell growth at 5X10'-7 M after 48 hrs by sulforhodamine B assay; details: NCI-H23, 48 h, read-out: Activity
[15] = test system: HOP-92; experiment: Growth inhibition of human HOP92 cells assessed as cell growth at 5X10'-8 M after 48 hrs by sulforhodamine B assay; details: HOP-92, 48 h, read-out: Activity
[16] = test system: DU-145; experiment: Growth inhibition of human DU145 cells assessed as cell growth at 5X10'-7 M after 48 hrs by sulforhodamine B assay; details: DU-145, 48 h, read-out: Activity
[17] = test system: Malme-3M; experiment: Growth inhibition of human MALME-3M cells assessed as cell growth at 5X10'-7 M after 48 hrs by sulforhodamine B assay; details: read-out: Activity
[18] = test system: CCRF-CEM; experiment: Growth inhibition of human CCRF-CEM cells assessed as cell growth at 5X10'-8 M after 48 hrs by sulforhodamine B assay; details: read-out: Activity
[19] = test system: NCI-H322M; experiment: Growth inhibition of human NCI-H322M cells assessed as cell growth at 5X10'-8 M after 48 hrs by sulforhodamine B assay; details: read-out: Activity
[20] = Growth inhibition of human Hs 578T cells assessed as cell growth at 5X10'-7 M after 48 hrs by sulforhodamine B assay; details: read-out: Activity
[21] = test system: SR; experiment: Growth inhibition of human SR cells assessed as cell growth at 5X10'-9 M after 48 hrs by sulforhodamine B assay; details: read-out: Activity
[22] = test system: SF-268; experiment: Growth inhibition of human SF268 cells assessed as cell growth at 5X10'-8 M after 48 hrs by sulforhodamine B assay; details: SF-268, 48 h, read-out: Activity
[23] = test system: LOX IMVI; experiment: Growth inhibition of human LOXIMVI cells assessed as cell growth at 5X10'-6 M after 48 hrs by sulforhodamine B assay; details: read-out: Activity
[24] = test system: CAKI-1; experiment: Growth inhibition of human CAKI-1 cells assessed as cell growth at 5X10'-8 M after 48 hrs by sulforhodamine B assay; details: CAKI-1, 48 h, read-out: Activity
[25] = test system: MOLT-4; experiment: Growth inhibition of human MOLT4 cells assessed as cell growth at 5X10'-5 M after 48 hrs by sulforhodamine B assay; details: MOLT-4, 48 h, read-out: Activity
[26] = test system: SF-295; experiment: Growth inhibition of human SF295 cells assessed as cell growth at 5X10'-7 M after 48 hrs by sulforhodamine B assay; details: SF-295, 48 h, read-out: Activity
[27] = test system: K562; experiment: Growth inhibition of human K562 cells assessed as cell growth at 5X10'-5 M after 48 hrs by sulforhodamine B assay; details: K562, 48 h, read-out: Activity
[28] = test system: A498; experiment: Growth inhibition of human A498 cells assessed as cell growth at 5X10'-8 M after 48 hrs by sulforhodamine B assay; details: A498, 48 h, read-out: Activity
[29] = test system: TK-10; experiment: Growth inhibition of human TK10 cells assessed as cell growth at 5X10'-5 M after 48 hrs by sulforhodamine B assay; details: TK-10, 48 h, read-out: Activity
[30] = test system: NCI-H522; experiment: Growth inhibition of human NCI-H522 cells assessed as cell growth at 5X10'-5 M after 48 hrs by sulforhodamine B assay; details: NCI-H522, 48 h, read-out: Activity
[31] = test system: KM12; experiment: Growth inhibition of human KM12 cells assessed as cell growth at 5X10'-6 M after 48 hrs by sulforhodamine B assay; details: KM12, 48 h, read-out: Activity
[32] = test system: BT-549; experiment: Growth inhibition of human BT549 cells assessed as cell growth at 5X10'-7 M after 48 hrs by sulforhodamine B assay; details: BT-549, 48 h, read-out: Activity
[33] = test system: OVCAR-4; experiment: Growth inhibition of human OVCAR4 cells assessed as cell growth at 5X10'-9 M after 48 hrs by sulforhodamine B assay; details: OVCAR-4, 48 h, read-out: Activity
[34] = test system: SN12C; experiment: Growth inhibition of human SN12C cells assessed as cell growth at 5X10'-5 M after 48 hrs by sulforhodamine B assay; details: read-out: Activity
[35] = test system: MCF7; experiment: Growth inhibition of human MCF7 cells assessed as cell growth at 5X10'-6 M after 48 hrs by sulforhodamine B assay; details: MCF7, 48 h, read-out: Activity
[36] = Growth inhibition of human HCC2998 cells assessed as cell growth at 5X10'-5 M after 48 hrs by sulforhodamine B assay; details: HCC 2998, 48 h, read-out: Activity
[37] = test system: T47D; experiment: Growth inhibition of human T47D cells assessed as cell growth at 5X10'-7 M after 48 hrs by sulforhodamine B assay; details: read-out: Activity

## COc1cc(-c2nn(-c3cccc(NC(=O)Nc4cccc(C(F)(F)F)c4)c3)cc2-c2ccncc2)ccc1Cl
[1]
  growth at 0.05 µM: 93%
[2]
  growth at 50 µM: -44%
[3]
  growth at 50 µM: 2%
[4]
  growth at 50 µM: -24%
[5]
  growth at 5 µM: -12%
[6]
  growth at 0.005 µM: 93%
[7]
  growth at 50 µM: -30%
[8]
  growth at 50 µM: -22%
[9]
  growth at 0.05 µM: 98%
[10]
  growth at 0.05 µM: 98%
[11]
  growth at 0.5 µM: 65%
[12]
  growth at 50 µM: -43%
[13]
  growth at 50 µM: -6%
[14]
  growth at 0.5 µM: 90%
[15]
  growth at 0.05 µM: 90%
[16]
  growth at 0.5 µM: 90%
[17]
  growth at 0.5 µM: 94%
[18]
  growth at 0.05 µM: 102%
[19]
  growth at 0.05 µM: 92%
[20]
  growth at 0.5 µM: 80%
[21]
  growth at 0.005 µM: 93%
[22]
  growth at 0.05 µM: 93%
[23]
  growth at 5 µM: -75%
[24]
  growth at 0.05 µM: 98%
[25]
  growth at 50 µM: -17%
[26]
  growth at 0.5 µM: 39%
[27]
  growth at 50 µM: 1%
[28]
  growth at 0.05 µM: 87%
[29]
  growth at 50 µM: -7%
[30]
  growth at 50 µM: -41%
[31]
  growth at 5 µM: -37%
[32]
  growth at 0.5 µM: 91%
[33]
  growth at 0.005 µM: 99%
[34]
  growth at 50 µM: -7%
[35]
  growth at 5 µM: 2%
[36]
  growth at 50 µM: -79%
[37]
  growth at 0.5 µM: 85%

## O=C(Nc1cccc(-n2cc(-c3ccncc3)c(-c3ccc(Cl)c(O)c3)n2)c1)c1ccc(N2CCOCC2)c(C(F)(F)F)c1
[1]
  growth at 0.05 µM: 92%
[2]
  growth at 50 µM: -24%
[3]
  growth at 50 µM: 36%
[4]
  growth at 50 µM: 26%
[5]
  growth at 5 µM: 70%
[6]
  growth at 0.005 µM: 85%
[7]
  growth at 50 µM: 8%
[8]
  growth at 50 µM: -53%
[9]
  growth at 0.05 µM: 102%
[10]
  growth at 0.05 µM: 99%
[11]
  growth at 0.5 µM: 92%
[12]
  growth at 50 µM: 71%
[13]
  growth at 50 µM: 8%
[14]
  growth at 0.5 µM: 96%
[15]
  growth at 0.05 µM: 78%
[16]
  growth at 0.5 µM: 96%
[17]
  growth at 0.5 µM: 89%
[18]
  growth at 0.05 µM: 100%
[19]
  growth at 0.05 µM: 104%
[20]
  growth at 0.5 µM: 84%
[21]
  growth at 0.005 µM: 94%
[22]
  growth at 0.05 µM: 93%
[23]
  growth at 5 µM: 10%
[24]
  growth at 0.05 µM: 99%
[25]
  growth at 50 µM: -5%
[26]
  growth at 0.5 µM: 93%
[27]
  growth at 50 µM: 3%
[28]
  growth at 0.05 µM: 83%
[29]
  growth at 50 µM: 24%
[30]
  growth at 50 µM: -2%
[31]
  growth at 5 µM: 25%
[32]
  growth at 0.5 µM: 111%
[33]
  growth at 0.005 µM: 93%
[34]
  growth at 50 µM: 39%
[35]
  growth at 5 µM: 41%
[36]
  growth at 50 µM: 4%
[37]
  growth at 0.5 µM: 105%

## O=C(Nc1cccc(-n2cc(-c3ccncc3)c(-c3ccc(Cl)c(O)c3)n2)c1)Nc1cc(C(F)(F)F)cc(C(F)(F)F)c1
[1]
  growth at 0.05 µM: 107%
[2]
  growth at 50 µM: -55%
[3]
  growth at 50 µM: -49%
[4]
  growth at 50 µM: -53%
[5]
  growth at 5 µM: -65%
[6]
  growth at 0.005 µM: 83%
[7]
  growth at 50 µM: -75%
[8]
  growth at 50 µM: -71%
[9]
  growth at 0.05 µM: 103%
[10]
  growth at 0.05 µM: 105%
[11]
  growth at 0.5 µM: 65%
[12]
  growth at 50 µM: -89%
[13]
  growth at 50 µM: -40%
[14]
  growth at 0.5 µM: 80%
[15]
  growth at 0.05 µM: 75%
[16]
  growth at 0.5 µM: 80%
[17]
  growth at 0.5 µM: 77%
[18]
  growth at 0.05 µM: 92%
[19]
  growth at 0.05 µM: 104%
[20]
  growth at 0.5 µM: 82%
[21]
  growth at 0.005 µM: 102%
[22]
  growth at 0.05 µM: 103%
[23]
  growth at 5 µM: -94%
[24]
  growth at 0.05 µM: 92%
[25]
  growth at 50 µM: -29%
[26]
  growth at 0.5 µM: 61%
[27]
  growth at 50 µM: -26%
[28]
  growth at 0.05 µM: 86%
[29]
  growth at 50 µM: -95%
[30]
  growth at 50 µM: -82%
[31]
  growth at 5 µM: -60%
[32]
  growth at 0.5 µM: 109%
[33]
  growth at 0.005 µM: 95%
[34]
  growth at 50 µM: -48%
[35]
  growth at 5 µM: 4%
[36]
  growth at 50 µM: -90%
[37]
  growth at 0.5 µM: 88%
